Experimental data: patent US8916681B2, “Compound, use and method” (Medical Research Council, priority 2007, dated 2014)
“Also recorded” adds a separate entry of the source. Non-standard residues stand in square brackets, D forms with d. Residues, ends and D or L forms follow the SMILES beside them.

Assays:
[1] = Fetal weight after kisspeptin treatment (FIG. 6); format: in vivo
GnRH receptors = molecular target: T1, GnRH receptors (Homo sapiens, UniProt P30968); test: Binding to GnRH receptors (data not shown)
T1 sequence (P30968 1-328): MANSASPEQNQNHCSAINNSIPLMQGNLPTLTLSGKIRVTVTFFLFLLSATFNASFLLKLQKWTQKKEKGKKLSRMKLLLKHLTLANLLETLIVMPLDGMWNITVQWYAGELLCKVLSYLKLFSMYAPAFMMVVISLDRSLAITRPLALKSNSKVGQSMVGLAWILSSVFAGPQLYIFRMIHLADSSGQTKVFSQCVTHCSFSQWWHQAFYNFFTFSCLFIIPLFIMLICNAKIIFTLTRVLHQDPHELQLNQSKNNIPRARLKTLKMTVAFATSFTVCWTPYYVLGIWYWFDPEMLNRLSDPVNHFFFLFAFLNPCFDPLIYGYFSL

[2] = system: plasma LH, GH, prolactin and cortisol; test: Central (third ventricle) infusion in OVX ewes: plasma LH, GH, prolactin, cortisol; format: in vivo, sheep
Description: Adult Corriedale ewes were housed under natural lighting and were bilaterally ovariectomized (OVX) at least 1 month before any experimental manipulations. Permanent indwelling third cerebral ventricular (3V) cannulae were implanted in a subsequent surgical procedure as previously described (Barker-Gibb et al., 1995, J. Endocrinol., 147:565-79). Approximately two weeks after 3V surgery, one external jugular vein was cannulated for blood sampling and animals housed in single pens; cannulae were kept patent with heparinized saline.
Ewes were assigned to two treatment groups (n=4 per group); kisspeptin antagonist (diluted in artificial cerebrospinal fluid, aCSF; 150 mM NaCl, 1.2 mM CaCl2, 1 mM MgCl2, 2.8 mM KCl) or control (aCSF only). The following day, infusion lines were connected to 3V cannulae and blood sampling commenced at 07.00 h. Samples were collected every 10 min. After 3 h of sampling, kisspeptin antagonist (or control) was infused into the 3V at a dose of 40 μg/h for 1 h, with an initial loading dose of 10 μg. Both kisspeptin antagonist and vehicle were infused at 200 μl/h for 1 h using Graseby® MS16A infusion pumps (Smiths Medical Australasia Pty. Ltd., Gold Coast, Qld, Australia). After infusion, 3V lines remained in place and blood sampling continued for a further 2 h (total of 6 h). Plasma was harvested immediately from samples, and frozen at −20 C until assayed.
Plasma LH concentrations were measured in duplicate, using the method of Lee et al. (1976, J. Reprod. Fertil., 46:1-6) with NIH-oLH-518 as standard. Assay results were calculated using the program of Burger et al. (1972, J. Lab. Clin. Med., 80:302-12). Assay sensitivity was 0.08 ng/ml and the intra-assay coefficient of variation was less than 10% over the range of 0.3-12.8 ng/ml. A pulse analysis of the LH data was performed based on the method described for GnRH (Clarke, 1993, Endocrinology, 133:1624-32).
All experimental procedures were conducted under a protocol approved by the Monash School of Biomedical Sciences Animal Ethics Committee. Adult Corriedale ewes were housed under natural lighting and were bilaterally ovariectomized (OVX) at least 1 month before any experimental manipulations. Permanent indwelling third cerebral ventricular (3V) cannulae were implanted in a subsequent surgical procedure as previously described (49). Approximately 2 weeks after 3V surgery, one external jugular vein was cannulated for blood sampling and animals housed in single pens; cannulae were kept patent with heparinized saline. Ewes were assigned to two treatment groups (4/group); peptide 234 (diluted in artificial cerebrospinal fluid, aCSF; 150 mM NaCl, 1.2 mM CaCl2, 1 mM MgCl2, 2.8 mM KCl) or control (aCSF only). The following day, infusion lines were connected to 3V cannulae and blood sampling commenced at 07.00 h. Samples were collected every 10 min. After 3 h of sampling, peptide 234 (or control) was infused into the 3V at a dose of 40 μg/h for 1 h, with an initial loading dose of 10 μg. Both peptide 234 and vehicle were infused at 200 μl/h using Graseby® MS16A infusion pumps (Smith Medical Australasia Pty. Ltd.). After infusion, 3V lines remained in place and blood sampling continued for a further 2 h (total of 6 h). Plasma was harvested immediately from samples, and frozen at −20 C until assayed.
Plasma LH concentrations were measured in duplicate, with NIH-oLH-518 as standard (49). Assay sensitivity was 0.1 ng/ml and the intra-assay coefficient of variation was less than 10% over the range of 0.3-12.8 ng/ml. Pulse analysis of the plasma LH data was as previously described (36). Plasma samples were assayed for GH in duplicate using the standard NIDDK-oGH-I-4 and NIDDK-anti-oGH-2 antiserum (50). The assay sensitivity was 1 ng/ml, the intra-assay CV was less than 10% between 4 and 51 ng/ml and the inter-assay CV was 20%.
Plasma prolactin concentrations were measured in duplicate using Sigma, Lot 114F-0558, NOL-7135 as standard (50). […]

LH receptors = LH receptors (Homo sapiens, UniProt P22888); test: Binding to LH receptors (data not shown)
Sequence of LH receptors (P22888 27-699): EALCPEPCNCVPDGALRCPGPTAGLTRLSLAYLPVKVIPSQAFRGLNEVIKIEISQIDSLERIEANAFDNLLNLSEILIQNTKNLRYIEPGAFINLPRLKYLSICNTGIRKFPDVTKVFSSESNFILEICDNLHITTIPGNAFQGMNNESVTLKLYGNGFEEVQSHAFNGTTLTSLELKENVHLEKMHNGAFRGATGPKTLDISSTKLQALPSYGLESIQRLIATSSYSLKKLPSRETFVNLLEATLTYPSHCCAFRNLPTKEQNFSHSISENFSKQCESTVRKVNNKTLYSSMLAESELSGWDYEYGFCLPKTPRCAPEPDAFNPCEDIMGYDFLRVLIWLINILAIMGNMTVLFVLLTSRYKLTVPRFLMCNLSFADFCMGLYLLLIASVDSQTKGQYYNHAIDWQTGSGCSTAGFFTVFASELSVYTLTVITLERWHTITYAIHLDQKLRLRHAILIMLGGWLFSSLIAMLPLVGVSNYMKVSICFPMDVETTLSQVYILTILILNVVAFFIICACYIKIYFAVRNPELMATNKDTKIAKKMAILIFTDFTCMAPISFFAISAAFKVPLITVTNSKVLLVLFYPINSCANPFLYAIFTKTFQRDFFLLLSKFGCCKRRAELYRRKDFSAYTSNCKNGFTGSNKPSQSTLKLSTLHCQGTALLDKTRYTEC

[3] = before, during or after infusion

Row | binding to GnRH receptors (GnRH receptors) | binding to LH receptors (LH receptors) | Structure (SMILES) | fetal weight [1] | Mean GH ([2]; After Infusion) [ng/mL] | Mean LH ([2]; After Infusion) | LH pulse amplitude ([2]; After Infusion (240-360 min), listed as Peptide-234) [ng/mL] | LH pulse amplitude ([2]; After Infusion (240-360 min), listed as peptide 234) | Mean GH ([2]; Before Infusion) [ng/mL] | Mean LH ([2]; Before Infusion) [ng/mL] | LH pulse amplitude ([2]; Before Infusion (0-180 min)) [ng/mL] | Mean LH ([2]; During Infusion) [ng/mL] | LH pulse amplitude ([2]; During Infusion (180-240 min), 40 μg/h, loading dose 10 μg) [ng/mL] | Mean GH ([2]; During Infusion, listed as Peptide-234) [ng/mL] | Mean GH ([2]; During Infusion, listed as peptide 234) | number of LH secretory pulses ([2]; after ventricular administration) | cortisol concentrations [2, 3] | prolactin concentrations [2, 3]
1 | – | – | CC(C)C[C@H](NC(=O)CNC(=O)[C@H](Cc1ccccc1)NC(=O)[C@H](CO)NC(=O)[C@H](CC(N)=O)NC(=O)[C@H](Cc1c[nH]c2ccccc12)NC(=O)[C@H](CC(N)=O)NC(=O)[C@@H](N)Cc1ccc(O)cc1)C(=O)N[C@@H](CCCNC(=N)N)C(=O)N[C@@H](Cc1ccccc1)C(N)=O [Kiss, reference compound] | decreased | – | – | – | – | – | – | – | – | – | – | – | – | – | –
2 | did not bind | did not bind | CC(=O)N[C@H](C)C(=O)N[C@@H](CC(N)=O)C(=O)N[C@@H](Cc1c[nH]c2ccccc12)C(=O)N[C@@H](CC(N)=O)C(=O)NCC(=O)N[C@@H](Cc1ccccc1)C(=O)NCC(=O)N[C@H](Cc1c[nH]c2ccccc12)C(=O)N[C@@H](CCCNC(=N)N)C(=O)N[C@@H](Cc1ccccc1)C(N)=O [Peptide 234] (Ac-[dA]NWNGFG[dW]RF-NH2) | – | 9.11 ± 1.44 | significant reduction; also recorded: reduced | 0.68 ± 0.05 | significant reduction; also recorded: diminished amplitude; also recorded: markedly reduced | 5.11 ± 1.48 | 2.73 ± 0.43 | 1.63 ± 0.28 | 2.89 ± 0.55 | 1.82 ± 0.52 | 14.07 ± 2.78 | significant increase; also recorded: increased; also recorded: appeared to increase | markedly reduced | no effect | no effect
